Patent US4123544A, “Acetylsalicylic acid derivatives” (priority 1977, dated 1978)
Values after ≈ are worked out from the molar mass of the structure shown. Values joined by “and” are separate entries in the source; they are usually repeats but may differ in a detail not shown here. Equal entries are not always repeated. Where two headings read alike, the source gives them in different places.

Tests used:
[1] = test system: hyperthermia caused by the injection of brewer's yeast; test: Antipyretic activity, hyperthermia caused by injection of brewer's yeast; format: in vivo, rats; details: intraperitoneal; for central temperature: 200 mg to 400 mg/kg, 37.28 ± 0.052 at Ho
Method: The antipyretic activity of 1-o-acetoxybenzoyl-4-hydroxyl-L-proline was assessed by the hyperthermia caused by the injection of brewer's yeast 17 hours before the start of the experiment (groups of 8 rats + 1 comparison group without yeast). The first temperature measurement was made at time Ho and the compounds to be tested were then administered intraperitoneally. The central temperature was then checked 1 hour 30 minutes, 3 hours and 4 hours 30 minutes after Ho.

[2] = acute toxicity, intraperitoneal administration to mice; details: mouse, in vivo, ip
Source text: The LD50 of the compound according to the invention, when administered intraperitoneally to mice, was about 10g/kg, whilst it was about 3g/kg for lysine acetylsalicylate.

mice = test: acute toxicity on intravenous administration to mice; format: in vivo
Source text: (§1) acute toxicity on intravenous administration to mice
(§2) The acute toxicity of 1-o-acetoxybenzoyl-4-hydroxy-L-proline was investigated by comparison with an injectable aspirin, namely lysine acetylsalicylate. The acetylsalicylic acid content of the two compounds was substantially the same (about 50%).
(§3) (Intravenous administration to mice)
(§4) *x/5: number of dead animals amongst 5 animals tested.

Solubility in water = format: physicochemical
[3] = test system: carrageenin-induced plantar oedema; test: Anti-inflammatory activity, carrageenin-induced plantar oedema test on rats (intraperitoneal); format: in vivo; details: for percentage variation in volume, (V2 - V1)/V1 × 100, individual rats: 200 mg/kg (expressed as weight of compound); for percentage variation in volume, (V2 - V1)/V1 × 100, individual rats / percentage variation in volume, mean (X): 3 hours; for percentage variation in volume, mean (X): controls 88.22% ± 10.5; for Percentage variation: mean oedema versus controls
Method: The anti-inflammatory activity of 1-o-acetoxybenzoyl-4-hydroxy-L-proline was studied by means of the carrageenin-induced plantar oedema test on rats.
[…] of each rat in three groups of 8 to 9 rats was injected with carrageenin at time Ho. The first group was a control group and the second and third groups were test groups. The volume (V1) of the paw was then measured, and the compounds to be tested were administered intraperitoneally. The volume (V2) of the same paw was measured again three hours later.

[4] = test system: phenylbenzoquinone cramping; test: Analgesic activity, phenylbenzoquinone cramping test; format: in vivo; details: oral; for Percentage change in number of cramps versus control / Number of cramps / Percentage inhibition relative to the control animals: 2 hours before test; for Number of cramps: control 449
Method: The analgesic activity of 1-o-acetoxybenzoyl-4-hydroxy-L-proline was studied by means of the phenylbenzoquinone cramping test, in comparison with the same injectable aspirin as that used in Example 2, the two compouns being administered orally 2 hours before the test on groups of 10 animals; a control group of animals to which neither compound was administered was also used.

[5] = test system: carrageenin-induced oedema; test: Anti-inflammatory activity, carrageenin-induced oedema test on rats (intramuscular); format: in vivo; details: for % inhibition / % Variation in the volume of the oedema: 3 hours; for % Variation in the volume of the oedema: comparisons 107.39 ± 5.19
Method: The anti-inflammatory activity of 1-o-acetoxybenzoyl-L-proline was studied by means of the carrageenin-induced oedema test on rats. In this test, the antiinflammatory activity of the compound according to the invention was compared with that of an injectable aspirin, namely lysine acetylsalicylate.
the compounds were injected intramuscularly, 30 minutes before the carrageenin. The volume of the oedema was measured three hours afterwards.

rats = test: Analgesic activity, Randall-Selitto test on rats; format: in vivo
Source text: The analgesic activity of 1-o-acetoxybenzoyl-L-proline was studied on rats by means of the Randall-Selitto test (Arch. int. Pharmacodyn., 1957, 111, 409, 419).

[6] = acute toxicity on intravenous administration to mice; format: in vivo; details: mouse, in vivo; intravenous, mice
Source text: as §1, §2, §3, §4

[7] = acute toxicity, oral administration to mice; details: mouse, in vivo, orally
gastric ulcers = details: administered orally; known disadvantage; cited from earlier work
[8] = 50 mg/kg (expressed as weight of compound)
[9] = 100 mg/kg (expressed as weight of compound)
[10] = 50 mg/kg (expressed as acetylsalicylic acid)
[11] = 100 mg/kg (expressed as acetylsalicylic acid)

## CC(=O)Oc1ccccc1C(=O)N1CC(O)C[C@H]1C(=O)O (stereo partly drawn) [1-o-acetoxybenzoyl-4-hydroxy-L-proline]
[1]; 1 hr 30 mins after Ho
  central temperature: 36.12 °C
[1]; 3 hrs after Ho
  central temperature: 36.40 °C
[1]; 4 hrs 30 mins after Ho
  central temperature: 36.82 °C
[1]; versus injectable aspirin
  antipyretic activity (in words): greater than that of the injectable aspirin
[2]
  LD50: ~10000 mg/kg
mice; intravenous, mice
  toxicity (in words): substantially non-toxic
mice; intravenous, mice, 700 mg/kg
  number of dead animals amongst 5 animals tested: 0/5
mice; intravenous, mice, 1,500 mg/kg
  number of dead animals amongst 5 animals tested: 0/5
mice; intravenous, mice, 3,000 mg/kg
  number of dead animals amongst 5 animals tested: 0/5
mice; intravenous, mice, 4,000 mg/kg
  number of dead animals amongst 5 animals tested: 0/5
mice; mouse, in vivo, iv
  immediate symptoms: practically no symptoms
Solubility in water; pH = 3
  solubility: ~50 mg/mL (≈ 170 mM)
[3]; listed as Compound according to the invention
  percentage variation in volume, (V2 - V1)/V1 × 100, individual rats: 63.6% and 64% and 82.5% and 82.3% and 63.5% and 61.6% and 67.4% and 53.7% and 60.9%
[3]; 200 mg/kg
  percentage variation in volume, mean (X): 66.61 ± 9.7%
  Percentage variation: -24%
[3]; 200 mg/kg, versus injectable aspirin
  anti-inflammatory activity (in words): very good anti-inflammatory activity, markedly superior to that of the injectable aspirin
[4]; [8]
  Percentage change in number of cramps versus control: -12%
  Number of cramps: 396
[4]; [9]
  Percentage change in number of cramps versus control: -57%
  Number of cramps: 194
[4]; phenylbenzoquinone test
  analgesic activity relative to the injectable aspirin: practically twice that of the injectable aspirin

## CC(=O)Oc1ccccc1C(=O)N1CCC[C@H]1C(=O)O [1-o-acetoxybenzoyl-L-proline]
[5]; 50 mg/kg
  % inhibition: 2.48%
  % Variation in the volume of the oedema: 104.73 ± 7.23%
[5]; 100 mg/kg
  % inhibition: 23.97%
  % Variation in the volume of the oedema: 81.65 ± 5.97%
[5]; 200 mg/kg
  % inhibition: 29.50%
  % Variation in the volume of the oedema: 75.71 ± 4.8%
[5]; dose of 100 mg
  antiinflammatory activity (in words): comparable to that of lysine acetylsalicylate used at medium doses
rats; 50 mg/kg, 1 hour
  Inhibition %: 59.49%
rats; 50 mg/kg, 2 hours
  Inhibition %: 67.57%
rats; 50 mg/kg, 4 hours
  Inhibition %: 44.00%
rats; 100 mg/kg, 1 hour
  Inhibition %: 74.68%
rats; 100 mg/kg, 2 hours
  Inhibition %: 89.19%
rats; 100 mg/kg, 4 hours
  Inhibition %: 53.33%
rats; 200 mg/kg, 1 hour
  Inhibition %: 98.73%
rats; 200 mg/kg, 2 hours
  Inhibition %: 130.98%
rats; 200 mg/kg, 4 hours
  Inhibition %: 104.01%
rats; dose of 100 mg
  analgesic activity (in words): comparable to that of lysine acetylsalicylate used at medium doses
Solubility in water
  solubility: 50 mg/mL (≈ 180 mM)

## CC(=O)Oc1ccccc1C(=O)O [Lysine acetylsalicylate, lysine acetylsalicylate, reference compound]
[5]; 50 mg/kg
  % inhibition: 16.74%
  % Variation in the volume of the oedema: 89.41 ± 9.39%
[5]; 100 mg/kg
  % inhibition: 27.56%
  % Variation in the volume of the oedema: 77.79 ± 5.39%
[5]; 200 mg/kg
  % inhibition: 41.76%
  % Variation in the volume of the oedema: 62.54 ± 6.83%
rats; 50 mg/kg, 1 hour
  Inhibition %: 72.98%
rats; 50 mg/kg, 2 hours
  Inhibition %: 60.26%
rats; 50 mg/kg, 4 hours
  Inhibition %: 65.79%
rats; 100 mg/kg, 1 hour
  Inhibition %: 85.14%
rats; 100 mg/kg, 2 hours
  Inhibition %: 97.44%
rats; 100 mg/kg, 4 hours
  Inhibition %: 73.68%
rats; 200 mg/kg, 1 hour
  Inhibition %: 105.40%
rats; 200 mg/kg, 2 hours
  Inhibition %: 124.36%
rats; 200 mg/kg, 4 hours
  Inhibition %: 111.84%
[1]; 1 hr 30 mins after Ho
  central temperature: 36.64 °C
[1]; 3 hrs after Ho
  central temperature: 36.92 °C
[1]; 4 hrs 30 mins after Ho
  central temperature: 36.90 °C
[2]; intraperitoneally, mice, read-out: LD50
  LD50: ~3000 mg/kg
[6]
  LD50: ~2000 mg/kg
mice; intravenous, mice
  immediate symptoms: pronounced, with depression, ataxia and convulsions occurring
mice; intravenous, mice, 1,500 mg/kg
  number of dead animals amongst 5 animals tested: 0/5
mice; intravenous, mice, 2,000 mg/kg
  number of dead animals amongst 5 animals tested: 5/5
mice; intravenous, mice, 3,000 mg/kg
  number of dead animals amongst 5 animals tested: 3/5
mice; intravenous, mice, 3,500 mg/kg
  number of dead animals amongst 5 animals tested: 5/5
[7]
  LD50: 3000 mg/kg
[3]; listed as Injectable aspirin
  percentage variation in volume, (V2 - V1)/V1 × 100, individual rats: 74.4% and 83.3% and 70.7% and 68.3% and 87.5% and 61% and 85% and 64%
[3]; 200 mg/kg
  percentage variation in volume, mean (X): 74.29% ± 9.36
  Percentage variation: -16%
[4]; [10]
  Percentage inhibition relative to the control animals: -14%
  Number of cramps: 386
[4]; [11]
  Percentage inhibition relative to the control animals: -56%
  Number of cramps: 196

## CC(=O)Oc1ccccc1C(=O)O [acetylsalicylic acid]
Gastric ulcers
  ulcerogenic activity: ulcerogenic
